Data: US7273861B2, “Non-nucleoside reverse transcriptase inhibitors” (Boehringer Ingelheim (Canada) Ltd., priority 2002, dated 2007)
Like-named read-outs stand apart in the source and are kept apart here.

Experiments:
HIV-1 RT WT = target: T1, HIV-1 RT WT (Human immunodeficiency virus type 1 group M subtype B, UniProt P03366); assay: Reverse Transcriptase (RT) assay, wild type; assay type: biochemical
T1 construct: mutations that occur in the reverse transcriptase segment of the pol gene
From the text: (§1) Based upon testing of these compounds, as described below, it is known that they inhibit the RNA-dependent DNA polymerase activity of HIV-1 RT. Utilizing the Reverse Transcriptase (RT) Assay described below, compounds can be tested for their ability to inhibit the RNA-dependent DNA polymerase activity of HIV-1 RT. Certain specific compounds described in the Examples which appear below, were so tested. The results of this testing appear in Table 2 as IC50 (nM) and EC50 (nM).
(§2) The assays are as described in WO 01/96338A1, the contents of which are hereby incorporated herein. The results are listed in Table 2 as IC50(nM) and EC50 (nM).

HIV-1 RT K103N/Y181C = target: T2, HIV-1 RT K103N/Y181C (Human immunodeficiency virus type 1 group M subtype B, UniProt P03366, K702N/Y780C); assay: Reverse Transcriptase (RT) assay, double mutant K103N/Y181C; assay type: biochemical
T2 construct: mutations that occur in the reverse transcriptase segment of the pol gene
From the text: as §1, §2

[1] = tested on: wild type HIV-1 replication; assay: Cell-based assay, wild type HIV
From the text: as §2

| Compound | IC50 (HIV-1 RT WT) [nM] | IC50 (HIV-1 RT K103N/Y181C) [nM] | IC50 (HIV-1 RT WT; wild type RT, read-out: IC50 WT) [nM] | IC50 (HIV-1 RT K103N/Y181C; double mutant K103N/Y181C RT, read-out: IC50 K103N/Y181C) [nM] | EC50 [1] [nM] | EC50 ([1]; Human immunodeficiency virus 1) [nM] |
| --- | --- | --- | --- | --- | --- | --- |
| CCN1c2ncc(CCOc3cccc4c3CCNC4=O)cc2-c2ncc(C)n2-c2cccnc21 [Entry 110, 9-Ethyl-3-methyl-12-{2-{(1,2,3,4-ttrahydro-1-oxo-5-isoquinolinyl)oxy}ethyl}-9H-imidazo[1,2-d]dipyrido[2,3-b:3′,2′-f][1,4]diazepine] | < 50 | > 100 | – | – | – | – |
| CCN1c2ncc(CCOc3cccc4c3CCS(=O)(=O)N4)cc2-c2ncc(C)n2-c2cccnc21 [Entry 104] | < 50 | 50 to 100 | – | – | – | – |
| CCN1c2ncc(CCOc3ccc(C(=O)O)c4c3CCCC4)cc2-c2ncc(C)n2-c2cccnc21 [Entry 121] | < 50 | > 100 | – | – | – | – |
| CCN1c2ncc(CCOc3ccc(C(=O)O)c4ccccc34)cc2-c2ncc(C)n2-c2cccnc21 [Entry 122] | < 50 | > 100 | – | – | – | – |
| CCN1c2ncc(CCOc3ccc4c(c3)C(C)(C)NS4(=O)=O)cc2-c2nccn2-c2c(C)ccnc21 [Entry 107] | < 50 | < 50 | – | – | – | – |
| 4′-{(9H-imidazo[1,2-d]dipyrido[2,3-b:3′,2′-f][1,4]diazepin-12-yl)ethoxy}-3′-methyl-[1,1′-biphenyl]4-acetic acid [Entry 119] | – | – | < 50 | < 50 | < 10 | – |
| CCN1c2ncc(CCOc3ccc(-c4ccc(CC(=O)O)cc4)cc3C)cc2-c2ncc(C)n2-c2cccnc21 [Entry 120] | < 50 | 50 to 100 | – | – | – | – |
| CCN1c2ncc(CCOc3cccc4c3CNC4=O)cc2-c2ncc(C)n2-c2cccnc21 [Entry 103] | < 50 | > 100 | – | – | – | < 10 |
| CCN1c2ncc(CCOc3ccc(C(=O)O)cc3C)cc2-c2ncc(C)n2-c2cccnc21 [Entry 118] | < 50 | < 50 | – | – | – | – |
| CCN1c2ncc(CCOc3cccc4c3CS(=O)(=O)N4CC(=O)OC(C)(C)C)cc2-c2nccn2-c2c(C)ccnc21 [Entry 114] | < 50 | 50 to 100 | – | – | – | – |
| CCN1c2ncc(CCOc3cccc4c3CN(C)C(=O)N4C)cc2-c2ncc(C)n2-c2cccnc21 [Entry 111] | < 50 | > 100 | – | – | – | – |
| CCN1c2ncc(CCOc3cccc4c3CNC(=O)N4)cc2-c2nc(C)cn2-c2cccnc21 [Entry 101] | < 50 | > 100 | – | – | – | – |
| CCN1c2ncc(CCOc3cccc4c3CNC(=O)N4)cc2-c2nccn2-c2cccnc21 [Entry 109] | < 50 | < 50 | – | – | – | – |
| CCOC(=O)N1c2cccc(OCCc3cnc4c(c3)-c3nccn3-c3c(C)ccnc3N4CC)c2CS1(=O)=O [Entry 112] | < 50 | < 50 | – | – | – | – |
| CCN1c2ncc(CCOc3cccc4c3CNS4(=O)=O)cc2-c2ncc(C)n2-c2cccnc21 [Entry 105] | < 50 | < 50 | – | – | – | – |
| CCN1c2ncc(CCOc3ccc(C(=O)O)cc3C)cc2-c2nccn2-c2cccnc21 [Entry 117] | < 50 | > 100 | – | – | – | < 10 |
| CCN1c2ncc(CCOc3cccc4c3CNC(=O)N4)cc2-c2nccn2-c2c(C)ccnc21 [Entry 108] | < 50 | < 50 | – | – | – | – |
| CCN1c2ncc(CCOc3cccc4c3COC(=O)N4)cc2-c2ncc(C)n2-c2cccnc21 [Entry 106] | < 50 | > 100 | – | – | – | – |
| CCN1c2ncc(CCOc3cccc4c3C=CS(=O)(=O)N4C)cc2-c2ncc(C)n2-c2cccnc21 [Entry 102] | < 50 | < 50 | – | – | – | < 10 |
| CCN1c2ncc(CCOc3cccc4c3CS(=O)(=O)N4)cc2-c2nccn2-c2c(C)ccnc21 [Entry 113] | < 50 | 50 to 100 | – | – | – | – |
| CCN1c2ncc(CCOc3cccc4c3CS(=O)(=O)N4CC(=O)O)cc2-c2nccn2-c2c(C)ccnc21 [Entry 115] | < 50 | 50 to 100 | – | – | – | > 50 |
